Results from patent US20240262795A1, “PYRAZINE COMPOUNDS AS INHIBITORS OF FLT3” (Biomea Fusion, Inc., priority 2021, published 2024).
pIC50: −log10 of the molar value.

Assays:
[1] = system: K-562; test: Proliferation inhibition, CellTiter-Glo, K-562; assay type: cell-based, human; conditions: Homo sapiens, K562, 96 h; K-562 cells, IC50 (4 days), CellTiter-Glo; read-out: K-562 IC50
Outline: (§1)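 About 10,000 cells per well in RPMI-1640 with 10% FBS. Compounds added 2 h after seeding at eight concentrations in duplicate (0.2% DMSO as 100% proliferation), then incubated ~96 h at 37° C, 5% CO2. ATP measured by CellTiter-Glo luminescence; IC50 from four-parameter logistic fit.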

[2] = target: T1, FLT3-ITD (Homo sapiens, UniProt P36888, DUP595-601); test: FLT3-ITD Lance Ultra TR-FRET kinase assay; assay type: biochemical
T1 construct: purchased Signalchem F-12-12CG-10
T1 sequence (P36888 with tags, fused parts or gaps DUP595-601 limits assumed): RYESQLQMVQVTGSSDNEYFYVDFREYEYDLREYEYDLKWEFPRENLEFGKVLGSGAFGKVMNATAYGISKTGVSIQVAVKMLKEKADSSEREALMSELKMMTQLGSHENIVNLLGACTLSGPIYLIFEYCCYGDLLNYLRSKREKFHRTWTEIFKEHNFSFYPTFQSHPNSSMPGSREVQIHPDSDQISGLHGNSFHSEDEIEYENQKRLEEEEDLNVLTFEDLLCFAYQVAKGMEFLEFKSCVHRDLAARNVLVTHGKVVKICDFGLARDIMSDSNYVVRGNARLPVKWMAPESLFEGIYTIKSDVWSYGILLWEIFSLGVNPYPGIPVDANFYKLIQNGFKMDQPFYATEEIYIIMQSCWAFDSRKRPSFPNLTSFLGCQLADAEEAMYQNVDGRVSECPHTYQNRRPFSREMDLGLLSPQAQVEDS
Text: (§2) High throughput 384-well Lance Ultra TR-FRET based kinase assays were established for the WT FLT3 and FLT3-ITD enzymes and employed a ULight-labeled peptide […] and FLT3 proteins labelled with Eu-conjugated antibody […] (WuXi Aptec). The principle of TR-FRET is based on transfer of energy between a donor and acceptor fluorophore that results when the fluorophores are within close proximity (˜100 Å) of each other. Recombinant WT FLT3 (#PR4666C, M.W. 48.6 kDa) was purchased from Invitrogen and FLT3-ITD (FLT3-ITD-W51, #F-12-12CG-10, M.W. 76 kDa) was purchased from Signalchem. Optimal assay conditions for the WT FLT3 enzyme assay were as follows: 0.5 nM FLT3 protein, 50 nM ULight-JAK-1 (Tyr1023) substrate peptide (PerkinElmer #TRF0121), 100 μM ATP, 60 min reaction time. Optimal assay conditions for the FLT3-ITD enzyme assay were as follows: 0.0625 nM FLT3-ITD protein, 50 nM ULight-JAK-1 (Tyr1023) substrate peptide, 50 μM ATP, 90 min reaction time. Briefly, 11 dose 3× serial dilutions were prepared for the test compounds and the reference compound and 100 nanoliters transferred to appropriate wells of 384-well assay plates. Five microliters of 2× enzyme/peptide were added into assay wells, assay plates centrifuged at 1000 rpm for about 30 seconds, sealed with sealing film and incubated for 30 min at 23° C. Assay buffer comprised 50 mM HEPES (pH 7.5), 1 mM EDTA, 0.01% Brij-35, 10 mM MgCl2 and 2 mM DTT. Next 5 μl of a 2× ATP mixture were added into the assay wells and the plates centrifuged at 1000 rpm about 30 seconds, sealed with sealing film and incubated for 23° C. for appropriate duration. Following assay incubation (30 min for WT FLT3 and 60 min for FLT3-ITD) 10 μl 2× Detection Mixture (Eu-W1024 Anti-phosphotyrosine (PT66) 2 nM and EDTA 10 mM) was added to assay wells, assay plates centrifuge at 1000 rpm about 1 minutes, sealed with sealing film and incubated at 23° C. for 60 minutes. Assay plates were read on a Perkin Elmer Envision reader at two wavelengths (665/615) and the ratio of […] calculated.
(§3) Data was expressed as % of inhibition relative to the vehicle control and calculated as follows:
(§4) Results were analyzed by XLFIT5 as % inhibition vs. log [compound concentration] and IC50 values were calculated by non-linear regression using four parameter-logistic equation. Fit=(A+((B−A)/(1+((C/x)^D)))). Res=(y−fit).

[3] = system: MOLM-13; test: Proliferation inhibition, CellTiter-Glo, MOLM-13; assay type: cell-based, human; conditions: Homo sapiens, 96 h; MOLM-13 cells, IC50 (4 days), CellTiter-Glo; read-out: MOLM-13 IC50
Outline: as §1

[4] = target: T2, WT FLT3 (Homo sapiens, UniProt P36888); test: WT FLT3 Lance Ultra TR-FRET kinase assay; assay type: biochemical
T2 construct: purchased Invitrogen PR4666C
T2 sequence (P36888 564-993 limits assumed): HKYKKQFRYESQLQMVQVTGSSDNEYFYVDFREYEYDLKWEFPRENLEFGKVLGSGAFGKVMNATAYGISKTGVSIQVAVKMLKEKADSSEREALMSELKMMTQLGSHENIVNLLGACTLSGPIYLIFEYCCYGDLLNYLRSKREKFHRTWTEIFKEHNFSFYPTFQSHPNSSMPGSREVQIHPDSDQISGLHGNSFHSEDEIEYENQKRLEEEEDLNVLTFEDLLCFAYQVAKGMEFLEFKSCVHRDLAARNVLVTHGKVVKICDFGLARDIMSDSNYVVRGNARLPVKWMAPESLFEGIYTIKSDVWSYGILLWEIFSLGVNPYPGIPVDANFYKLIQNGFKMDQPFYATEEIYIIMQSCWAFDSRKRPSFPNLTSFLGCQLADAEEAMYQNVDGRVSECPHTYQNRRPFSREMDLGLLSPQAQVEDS
Text: as §2, §3, §4

[5] = system: MV-4-11; test: Proliferation inhibition, CellTiter-Glo, MV-4-11; assay type: cell-based, human; conditions: Homo sapiens, MV4-11, 96 h; MV-4:11 cells, IC50 (4 days), CellTiter-Glo; read-out: MV-4:11 IC50
Outline: as §1

SMILES | pIC50 [1] | pIC50 [2] | pIC50 [3] | pIC50 [4] | pIC50 [5]
CCc1nc(C(N)=O)c(Nc2cccc(CCNC(=O)[C@H](C)N(C)C(=O)C#CCN(C)C)c2)nc1N(C)C [Compound 203, (S)-5-(dimethylamino)-3-((3-(2-(2-(4-(dimethylamino)-N-methylbut-2-ynamido)propanamido)ethyl)phenyl)amino)-6-ethylpyrazine-2-carboxamide] | < 6.30 | 9.30 to 9.70 | 8.00 to 9.00 | 9.00 to 9.30 | > 9.00
C=CC(=O)N(C)[C@@H](C)C(=O)NCCc1cccc(Nc2nc(N(C)C)c(CC)nc2C(N)=O)c1 [Compound 213, (S)-5-(dimethylamino)-6-ethyl-3-((3-(2-(2-(N-methylacrylamido)propanamido)ethyl)phenyl)amino)pyrazine-2-carboxamide] | < 6.30 | 9.70 to 10.00 | 8.00 to 9.00 | 9.00 to 9.30 | > 9.00
CCc1nc(C(N)=O)c(Nc2cccc(CCNC(=O)[C@H](C)N(C)C(=O)/C=C/CN(C)C)c2)nc1N(C)CC [Compound 221, (S,E)-3-((3-(2-(2-(4-(dimethylamino)-N-methylbut-2-enamido)propanamido)ethyl)phenyl)amino)-6-ethyl-5-(ethyl(methyl)amino)pyrazine-2-carboxamide] | < 6.30 | 9.70 to 10.00 | > 9.00 | 9.00 to 9.30 | > 9.00
Cc1nc(C(N)=O)c(Nc2cc(F)cc(CCNC(=O)[C@H](C)N(C)C(=O)/C=C/CN(C)C)c2)nc1N(C)C [Compound 239, 5-(dimethylamino)-3-[3-[2-[[(2S)-2-[[(E)-4-(dimethylamino)but-2-enoyl]-methyl-amino]propanoyl]amino]ethyl]-5-fluoro-anilino]-6-methyl-pyrazine-2-carboxamide] | < 6.30 | 9.70 to 10.00 | 7.00 to 8.00 | 9.00 to 9.30 | 8.00 to 9.00
Cc1nc(C(N)=O)c(Nc2cccc(CCNC(=O)CN(C)C(=O)/C=C/CN(C)C)c2)nc1C1CC1 [Compound 241, (E)-5-cyclopropyl-3-((3-(2-(2-(4-(dimethylamino)-N-methylbut-2-enamido)acetamido)ethyl)phenyl)amino)-6-methylpyrazine-2-carboxamide] | < 6.30 | 9.30 to 9.70 | 8.00 to 9.00 | < 9.00 | 8.00 to 9.00
CCN(C)c1nc(Nc2cccc(CCNC(=O)[C@H](C)N(C)C(=O)/C=C/CN(C)C)c2)c(C(N)=O)nc1C [Compound 253, (S,E)-3-((3-(2-(2-(4-(dimethylamino)-N-methylbut-2-enamido)propanamido)ethyl)phenyl)amino)-5-(ethyl(methyl)amino)-6-methylpyrazine-2-carboxamide] | < 6.30 | 9.30 to 9.70 | 8.00 to 9.00 | 9.00 to 9.30 | > 9.00
Cc1nc(C(N)=O)c(Nc2cc(F)cc(CCNC(=O)[C@H](C)N(C)C(=O)/C=C/CN(C)C)c2)nc1C1CC1 [Compound 254, (S,E)-5-cyclopropyl-3-((3-(2-(2-(4-(dimethylamino)-N-methylbut-2-enamido)propanamido)ethyl)-5-fluorophenyl)amino)-6-methylpyrazine-2-carboxamide] | < 6.30 | 9.00 to 9.30 | 8.00 to 9.00 | 9.00 to 9.30 | > 9.00
CCc1nc(C(N)=O)c(Nc2cccc(CCNC(=O)[C@@H](C)N(C)C(=O)/C=C/CN(C)C)c2)nc1N(C)C(C)C [Compound 302, (R,E)-3-((3-(2-(2-(4-(dimethylamino)-N-methylbut-2-enamido)propanamido)ethyl)phenyl)amino)-6-ethyl-5-(isopropyl (methyl)amino) pyrazine-2-carboxamide] | < 6.30 | < 9.00 | 8.00 to 9.00 | < 9.00 | > 9.00
CCc1nc(C(N)=O)c(Nc2cccc(CCNC(=O)[C@H](C)N(C)C(=O)/C=C/CNC)c2)nc1NC(C)C [Compound 303, (S, E)-6-ethyl-5-(isopropylamino)-3-((3-(2-(2-(N-methyl-4-(methylamino)but-2-enamido)propanamido)ethyl)phenyl)amino) pyrazine-2-carboxamide] | < 6.30 | 9.30 to 9.70 | > 9.00 | 9.30 to 9.70 | > 9.00
Cc1nc(C(N)=O)c(Nc2cccc(CCNC(=O)[C@H](C)N(C)C(=O)/C=C/CN(C)C)c2)nc1C(C)C [Compound 305, (S,E)-3-((3-(2-(2-(4-(dimethylamino)-N-methylbut-2-enamido)propanamido)ethyl)phenyl)amino)-5-isopropyl-6-methylpyrazine-2-carboxamide] | < 6.30 | < 9.00 | 8.00 to 9.00 | < 9.00 | 8.00 to 9.00
C=CC(=O)N(C)CC(=O)NCCc1cccc(Nc2nc(N(C)C(C)C)c(CC)nc2C(N)=O)c1 [Compound 308, 6-ethyl-5-(isopropyl(methyl)amino)-3-((3-(2-(2-(N-methylacrylamido)acetamido)ethyl)phenyl)amino)pyrazine-2-carboxamide] | < 6.30 | 9.70 to 10.00 | 8.00 to 9.00 | 9.30 to 9.70 | 8.00 to 9.00
C=CC(=O)N(C)[C@@H](C)C(=O)NCCc1cccc(Nc2nc(N(C)C(C)C)c(CC)nc2C(N)=O)c1 [Compound 315, (S)-6-ethyl-5-(isopropyl(methyl)amino)-3-((3-(2-(2-(N-methylacrylamido)propanamido)ethyl)phenyl)amino)pyrazine-2-carboxamide] | < 6.30 | 9.00 to 9.30 | 8.00 to 9.00 | < 9.00 | 8.00 to 9.00
CCc1nc(C(N)=O)c(Nc2cccc([C@@H](C)CNC(=O)CN(C)C(=O)/C=C/CN(C)C)c2)nc1C [Compound 321, (R,E)-3-((3-(1-(2-(4-(dimethylamino)-N-methylbut-2-enamido)acetamido)propan-2-yl)phenyl)amino)-6-ethyl-5-methylpyrazine-2-carboxamide] | < 6.30 | < 9.00 | 8.00 to 9.00 | 9.00 to 9.30 | 8.00 to 9.00
